# Patent EP4527946A1, “METHOD FOR PREDICTING THE RESPONSE TO A DUAL S[…] KINASE TTK INHIBITOR THERAPY” (Pangaea Oncology, S.A, priority 2023, dated 2025)
# Assays:
# [1] = system: EGFR TKI-resistant clones derived from the PC9 cell line and from 11-18 cells; assay: Dose-response (cell viability) in EGFR TKI-resistant clones; assay type: cell-based; details: Homo sapiens
# Description: All parental cell lines used in the study were purchased from the ATCC or other cell banks, with the exception of PC9 and 11-18. Parental PC9 cells were provided by F. Hoffman-La Roche Ltd (Basel, Switzerland) with the authorization of Dr. Mayumi Ono (Kyushu University, Fukuoka, Japan); while parental 11-18 cells were kindly provided by Dr. Mayumi Ono. Resistant cells were derived by exposing parental cells to EGFR TKIs, as described in [Bertran-Alamillo et al., (2019) AURKB as a target in non-small cell lung cancer with acquired resistance to anti-EGFR therapy. Nat Commun 10, 1812, and Jacobsen K, et al., (2017) Convergent Akt activation drives acquired EGFR inhibitor resistance in lung cancer. […] All tumor cells were grown in a humidified atmosphere with 5% CO2 at 37°C in RPMI 1640 + 10% fetal bovine serum (FBS), 50 µg/mL penicillin-streptomycin and 2 mM L-Glutamine. Cell lines were routinely tested for mycoplasma contamination and authenticated by analyzing >20 polymorphisms using a 30-gene panel NGS.
# (§1) Each concentration of drug was tested in sextuplicates. […] Data were derived from at least two independent experiments. […]
# NCI-H1819 = assay: Cell viability (MTT) assay; assay type: cell-based; details: NCI-H1819, origin LA, Td 51 h, drug for 2-3 doubling times
# Description: as §1
# SK-OV-3 = assay: Cell viability (MTT) assay; assay type: cell-based; details: Homo sapiens, SK-OV-3, origin Ovarian, Td 48 h, drug for 2-3 doubling times
# Description: as §1
# RT-112 = assay: Cell viability (MTT) assay; assay type: cell-based; details: Homo sapiens, RT-112, origin UB, Td 24 h, drug for 2-3 doubling times
# Description: as §1
# EBC-1 = assay: Cell viability (MTT) assay; assay type: cell-based; details: Homo sapiens, EBC-1, origin LS, Td 42 h, drug for 2-3 doubling times
# Description: as §1
# MDA-MB-231 = assay: Cell viability (MTT) assay; assay type: cell-based; details: Homo sapiens, MDA-MB-231, origin Breast, Td 25 h, drug for 2-3 doubling times
# Description: as §1
# NCI-H23 = assay: Cell viability (MTT) assay; assay type: cell-based; details: Homo sapiens, NCI-H23, origin LA, Td 38 h, drug for 2-3 doubling times
# Description: as §1
# DU-145 = assay: Cell viability (MTT) assay; assay type: cell-based; details: Homo sapiens, DU-145, origin Pr, Td 30 h, drug for 2-3 doubling times
# Description: as §1
# A549 = assay: Cell viability (MTT) assay; assay type: cell-based; details: Homo sapiens, A549, origin LA, Td 22 h, drug for 2-3 doubling times
# Description: as §1
# FADU = assay: Cell viability (MTT) assay; assay type: cell-based; details: Homo sapiens, origin HNSCC, Td 30 h, drug for 2-3 doubling times
# Description: as §1
# T98G = assay: Cell viability (MTT) assay; assay type: cell-based; details: Homo sapiens, origin GB, Td 22 h, drug for 2-3 doubling times
# Description: as §1
# SK-MES-1 = assay: Cell viability (MTT) assay; assay type: cell-based; details: Homo sapiens, SK-MES-1, origin LS, Td 50 h, drug for 2-3 doubling times
# Description: as §1
# NCI-H1975 = assay: Cell viability (MTT) assay; assay type: cell-based; details: Homo sapiens, NCI-H1975, origin LA, Td 39 h, drug for 2-3 doubling times
# Description: as §1
# HCC78 = assay: Cell viability (MTT) assay; assay type: cell-based; details: Homo sapiens, HCC78, origin LA, Td 38 h, drug for 2-3 doubling times
# Description: as §1
# LC-2/ad = assay: Cell viability (MTT) assay; assay type: cell-based; details: Homo sapiens, origin LA, Td 58 h, drug for 2-3 doubling times
# Description: as §1
# WM793 = assay: Cell viability (MTT) assay; assay type: cell-based; details: Homo sapiens, WM793, origin Melan., Td 48 h, drug for 2-3 doubling times
# Description: as §1
# NCI-H2228 = assay: Cell viability (MTT) assay; assay type: cell-based; details: Homo sapiens, NCI-H2228, origin LA, Td 96 h, drug for 2-3 doubling times
# Description: as §1
# MDA-MB-468 = assay: Cell viability (MTT) assay; assay type: cell-based; details: Homo sapiens, MDA-MB-468, origin Breast, Td 35 h, drug for 2-3 doubling times
# Description: as §1
# HCC366 = assay: Cell viability (MTT) assay; assay type: cell-based; details: HCC366, origin LA, Td 65 h, drug for 2-3 doubling times
# Description: as §1
# NCI-H3122 = assay: Cell viability (MTT) assay; assay type: cell-based; details: Homo sapiens, NCI-H3122, origin LA, Td 49 h, drug for 2-3 doubling times
# Description: as §1
# MIA-PaCa-2 = assay: Cell viability (MTT) assay; assay type: cell-based; details: Homo sapiens, MIA-PaCa-2, origin Pancreas, Td 26 h, drug for 2-3 doubling times
# Description: as §1
# SNU-C1 = assay: Cell viability (MTT) assay; assay type: cell-based; details: Homo sapiens, SNU-C1, origin Colon, Td 31 h, drug for 2-3 doubling times
# Description: as §1
# PC9-ER and PC-GR4 clones = assay: Flow cytometry (cell cycle, annexin V/PI) in clones; assay type: cell-based; details: 50 nM
# Description: (§2) For cell cycle analyses, cells were plated in T-25 flasks, allowed to attach, treated with drugs in RPMI 1640 + 10% FBS, trypsinised and centrifuged. Cell pellets were resuspended in PBS, fixed in 70% ethanol and incubated o/n at -20 °C. Fixed cells were subsequently re-centrifuged at 400 xg for 5 min at 4 °C; resuspended in 250 µL of PBS with 50 µg/mL RNAse A (Sigma Aldrich, Saint Louis, MO), incubated for 1 h at 37 °C and stained with propidium iodide (PI) (Roche Diagnostics, Basel, Switzerland) for 30 min at room temperature.
# (§3) For cell death analyses, the Annexin-V-FLUOS (An) staining kit (Roche Diagnostics) was employed, according to the manufacturer's instructions. Stained cells were sorted with a FACSCanto II cytometer (BD Biosciences, Franklin Lakes, NJ) using the FACSDiva software version 6.1.2. The combination of Annexin V and PI was used to differentiate four cell populations; viable cells (An -/PI-), early apoptotic (An+/PI-), necrotic (An-/PI+) and later apoptotic/necrotic (An+/PI+).
# NCl-H1819 cells = assay: Flow cytometry (cell cycle, Annexin V); assay type: cell-based; details: TTKi sensitive NCl-H1819 cells
# Description: as §2, §3
# PC9-ER = assay: cells; details: Homo sapiens, PC-9/ER, read-out: IC50s
# Description: as §1
structure (smiles),measurement,setting,value
COc1ccc(Oc2cc(NCCC(F)(F)F)c3ncc(-c4ccc(C(=O)NC5CC5)c(C)c4)n3n2)c(F)c1F [BAY1217389],IC50,"[1]; PC-9, six clones sensitive to the TTKi",< 0.001 µM
same,IC50,"[1]; PC-9, twelve TTKi resistant clones",> 0.2 µM
same,IC50,NCI-H1819,0.0026 ± 0.0003 µM
same,IC50,SK-OV-3,> 1 µM
same,IC50,RT-112,0.0038 ± 0.0003 µM
same,IC50,EBC-1,0.0046 ± 0.0006 µM
same,IC50,MDA-MB-231,> 1 µM
same,IC50,NCI-H23,> 1 µM
same,IC50,DU-145,> 1 µM
same,IC50,A549,> 1 µM
same,IC50,FADU,> 1 µM
same,IC50,T98G,> 1 µM
same,IC50,SK-MES-1,> 1 µM
same,IC50,NCI-H1975,> 1 µM
same,IC50,HCC78,> 1 µM
same,IC50,LC-2/ad,0.0036 ± 0.0003 µM
same,IC50,WM793,> 1 µM
same,IC50,NCI-H2228,> 1 µM
same,IC50,MDA-MB-468,0.0041 ± 0.0003 µM
same,IC50,HCC366,> 1 µM
same,IC50,NCI-H3122,0.0072 ± 0.0005 µM
same,IC50,MIA-PaCa-2,> 1 µM
same,IC50,SNU-C1,> 1 µM
same,effect after G2/M arrest (flow cytometry),PC9-ER and PC-GR4 clones; resistant clones,extensive polyploidy
same,effect after G2/M arrest (flow cytometry),PC9-ER and PC-GR4 clones; sensitive clones,cell death
same,cell death (Annexin V),NCl-H1819 cells,extensive induction of cell death
same,cell cycle effect (flow cytometry),NCl-H1819 cells; 50 nM,G2/M arrest
same,IC50,PC9-ER,> 10 µM
